Tests used:
[1] = molar heat capacity at constant pressure; xn = mol fraction of the nth substance listed; details: 101.33 kPa, Liquid
[2] = refractive index (Na D-line) (dimensionless); xn = mol fraction of the nth substance listed; details: 308.15 K, 101.33 kPa, Liquid, Standard Abbe refractometry
[3] = excess molar enthalpy (molar enthalpy of mixing); xn = mol fraction of the nth substance listed; details: 308.15 K, 101.33 kPa, Liquid

OCCc1ccccc1 [2-phenylethanol] + C[S+](C)[O-]
molar heat capacity at constant pressure [J/K/mol], [1]
Details	308.15 K	318.15 K
x2 = 0	–	251.6
x2 = 0.08581	–	246.5
x2 = 0.1638	–	228.7
x2 = 0.2999	–	198.1
x2 = 0.4205	–	191.3
x2 = 0.519	–	190.7
x2 = 0.6293	–	173.6
x2 = 0.6713	–	174.9
x2 = 0.7066	–	166.5
x2 = 0.7919	164.8	166.8
x2 = 0.8596	157.3	159.1
x2 = 0.937	159.6	160
x2 = 0.9688	144.8	145.9

Details	excess molar enthalpy [kcal/mol]	refractive index
[2], x2 = 0.0435	–	1.5257
[2], x2 = 0.1521	–	1.5224
[2], x2 = 0.2758	–	1.5179
[2], x2 = 0.3564	–	1.5145
[2], x2 = 0.4566	–	1.5099
[2], x2 = 0.5477	–	1.5052
[2], x2 = 0.6247	–	1.5008
[2], x2 = 0.7102	–	1.4956
[2], x2 = 0.7707	–	1.4916
[2], x2 = 0.8346	–	1.487
[2], x2 = 0.8653	–	1.4846
[2], x2 = 0.9433	–	1.4783
[3], x2 = 0.0655	-0.093	–
[3], x2 = 0.123	-0.15	–
[3], x2 = 0.1738	-0.185	–
[3], x2 = 0.219	-0.207	–
[3], x2 = 0.2961	-0.226	–
[3], x2 = 0.3593	-0.233	–
[3], x2 = 0.4569	-0.222	–
[3], x2 = 0.5286	-0.207	–
[3], x2 = 0.6273	-0.175	–
[3], x2 = 0.7163	-0.137	–
[3], x2 = 0.7709	-0.112	–
[3], x2 = 0.8347	-0.0825	–
[3], x2 = 0.8707	-0.0643	–
[3], x2 = 0.9099	-0.0459	–
[3], x2 = 0.9309	-0.0351	–
[3], x2 = 0.9528	-0.0234	–
[3], x2 = 0.9759	-0.012	–
